Legend:
annual bluegrass = test: Test D preemergence test; assay type: in vivo, Poa annua; conditions: scale 0 to 100
Source text: (§1) Seeds of plant species selected from annual bluegrass (Poa annua), blackgrass (Alopecurus myosuroides), downy bromegrass (Bromus tectorum), field violet (Viola arvensis), green foxtail (Setaria viridis), Italian ryegrass (Lolium multiflorum), littleseed canarygrass (Phalaris minor), spring wheat (Triticum aestivum), wild oat (Avena fatua), […]), winter barley (Hordeum vulgare), and winter wheat (Triticum aestivum) were planted and treated preemergence with test chemicals formulated in a non-phytotoxic solvent mixture which included a surfactant. […] A dash (-) response means no test result.

winter barley = test: Test D preemergence test; assay type: in vivo, Hordeum vulgare
Source text: as §1

tall waterhemp = test: Test G preemergence test; assay type: in vivo, Amaranthus tuberculatos; conditions: scale 0 to 100
blackgrass = test: Test D preemergence test; assay type: in vivo, Alopecurus myosuroides; conditions: scale 0 to 100
Source text: as §1

eastern black nightshade = test: Test G preemergence test; assay type: in vivo, Solanum ptycanthum; conditions: scale 0 to 100
goosegrass = test: Test G preemergence test; assay type: in vivo, Eleusine indica; conditions: scale 0 to 100
lambsquarters = test: Test G preemergence test; assay type: in vivo, Chenopodium album; conditions: scale 0 to 100
soybean = test: Test G preemergence test; assay type: in vivo, Glycine max; conditions: scale 0 to 100
spring wheat = test: Test D preemergence test; assay type: in vivo, Triticum aestivum; conditions: scale 0 to 100
Source text: as §1

winter wheat = test: Test D preemergence test; assay type: in vivo, Triticum aestivum; conditions: scale 0 to 100
Source text: as §1

field sandbur = test: Test G preemergence test; assay type: in vivo, Cenchrus incertus; conditions: scale 0 to 100
barnyardgrass = test: Test G preemergence test; assay type: in vivo, Echinochloa crus-galli; conditions: scale 0 to 100
yellow nutsedge = test: Test G preemergence test; assay type: in vivo, Cyperus esculentus; conditions: scale 0 to 100
corn = test: Test G preemergence test; assay type: in vivo, Zea mays; conditions: scale 0 to 100
giant foxtail = test: Test G preemergence test; assay type: in vivo, Setaria faberii; conditions: scale 0 to 100
millet = test: Test G preemergence test; assay type: in vivo, Panicum miliaceum; conditions: scale 0 to 100
itchgrass = test: Test G preemergence test; assay type: in vivo, Rottboellia cochinchinensis; conditions: scale 0 to 100
green foxtail = test: Test D preemergence test; assay type: in vivo, Setaria viridis; conditions: scale 0 to 100
Source text: as §1

cotton = test: Test G preemergence test; assay type: in vivo, Gossypium hirsutum; conditions: scale 0 to 100
sorghum = test: Test G preemergence test; assay type: in vivo, Sorghum vulgare; conditions: scale 0 to 100
wild oat = test: Test D preemergence test; assay type: in vivo, Avena fatua; conditions: scale 0 to 100
Source text: as §1

littleseed canarygrass = test: Test D preemergence test; assay type: in vivo, Phalaris minor; conditions: scale 0 to 100
Source text: as §1

Italian ryegrass = test: Test D preemergence test; assay type: in vivo, Lolium multiflorum; conditions: scale 0 to 100
Source text: as §1

With `Cn1nc(C(F)(F)F)c(C(Cl)S(=O)(=O)c2cccc[n+]2[O-])c1Cl` (centres unmarked) [Compound 12] the “Plant response rating, Bluegrass” value (annual bluegrass; 31 g ai/ha) was 60, the “Plant response rating, Bluegrass” value (annual bluegrass; 62 g ai/ha) was 100 and the “Plant response rating, Bluegrass” value (annual bluegrass; 125 g ai/ha) was 100. The “Plant response rating, Bluegrass” value (annual bluegrass; 250 g ai/ha) was 100, the “Plant response rating, Barley” value (winter barley; Preemergence, 62 g ai/ha, scale 0 to 100) was 0 and the “Plant response rating, Barley” value (winter barley; Preemergence, 125 g ai/ha, scale 0 to 100) was 0. For the same compound, the “Plant response rating, Barley” value (winter barley; Preemergence, 31 g ai/ha, scale 0 to 100) was 0, the “Plant response rating, Barley” value (winter barley; preemergence, 250 g ai/ha, scale 0 (no effect) to 100 (complete control)) was 0 and the “Plant response rating, Waterhemp” value (tall waterhemp; 31 g ai/ha) was 0. For the same compound, the “Plant response rating, Waterhemp” value (tall waterhemp; 62 g ai/ha) was 40, the “Plant response rating, Waterhemp” value (tall waterhemp; 125 g ai/ha) was 95 and the “Plant response rating, Waterhemp” value (tall waterhemp; 250 g ai/ha) was 100. For the same compound, the “Plant response rating, Blackgrass” value (blackgrass; 31 g ai/ha) was 0, the “Plant response rating, Blackgrass” value (blackgrass; 62 g ai/ha) was 0 and the “Plant response rating, Blackgrass” value (blackgrass; 125 g ai/ha) was 100. The “Plant response rating, Blackgrass” value (blackgrass; 250 g ai/ha) was 100, the “Plant response rating, Nightshade” value (eastern black nightshade; 31 g ai/ha) was 0 and the “Plant response rating, Nightshade” value (eastern black nightshade; 62 g ai/ha) was 0. For the same compound, the “Plant response rating, Nightshade” value (eastern black nightshade; 125 g ai/ha) was 0, the “Plant response rating, Nightshade” value (eastern black nightshade; 250 g ai/ha) was 70 and the “Plant response rating, Goosegrass” value (goosegrass; 31 g ai/ha) was 100. The “Plant response rating, Goosegrass” value (goosegrass; 62 g ai/ha) was 100, the “Plant response rating, Goosegrass” value (goosegrass; 125 g ai/ha) was 100 and the “Plant response rating, Goosegrass” value (goosegrass; 250 g ai/ha) was 100. For the same compound, the “Plant response rating, Lambsquarters” value (lambsquarters; 31 g ai/ha) was 0, the “Plant response rating, Lambsquarters” value (lambsquarters; 62 g ai/ha) was 0 and the “Plant response rating, Lambsquarters” value (lambsquarters; 125 g ai/ha) was 0. The “Plant response rating, Lambsquarters” value (lambsquarters; 250 g ai/ha) was 15, the “Plant response rating, Soybean” value (soybean; 31 g ai/ha) was 0 and the “Plant response rating, Soybean” value (soybean; 62 g ai/ha) was 0. For the same compound, the “Plant response rating, Soybean” value (soybean; 125 g ai/ha) was 0, the “Plant response rating, Soybean” value (soybean; 250 g ai/ha) was 0 and the “Plant response rating, Wheat, Spring” value (spring wheat; 31 g ai/ha) was 0. For the same compound, the “Plant response rating, Wheat, Spring” value (spring wheat; 62 g ai/ha) was 0, the “Plant response rating, Wheat, Spring” value (spring wheat; 125 g ai/ha) was 0 and the “Plant response rating, Wheat, Spring” value (spring wheat; 250 g ai/ha) was 0. The “Plant response rating, Wheat, Winter” value (winter wheat; 31 g ai/ha) was 0, the “Plant response rating, Wheat, Winter” value (winter wheat; 62 g ai/ha) was 0 and the “Plant response rating, Wheat, Winter” value (winter wheat; 125 g ai/ha) was 0. For the same compound, the “Plant response rating, Wheat, Winter” value (winter wheat; 250 g ai/ha) was 0, the “Plant response rating, Sandbur” value (field sandbur; 31 g ai/ha) was 85 and the “Plant response rating, Sandbur” value (field sandbur; 62 g ai/ha) was 85. The “Plant response rating, Sandbur” value (field sandbur; 125 g ai/ha) was 95, the “Plant response rating, Sandbur” value (field sandbur; 250 g ai/ha) was 100 and the “Plant response rating, Barnyardgrass” value (barnyardgrass; 31 g ai/ha) was 65. For the same compound, the “Plant response rating, Barnyardgrass” value (barnyardgrass; 62 g ai/ha) was 95, the “Plant response rating, Barnyardgrass” value (barnyardgrass; 125 g ai/ha) was 100 and the “Plant response rating, Barnyardgrass” value (barnyardgrass; 250 g ai/ha) was 100. For the same compound, the “Plant response rating, Nutsedge, Yellow” value (yellow nutsedge; 31 g ai/ha) was 0, the “Plant response rating, Nutsedge, Yellow” value (yellow nutsedge; 62 g ai/ha) was 0 and the “Plant response rating, Nutsedge, Yellow” value (yellow nutsedge; 125 g ai/ha) was 0. The “Plant response rating, Nutsedge, Yellow” value (yellow nutsedge; 250 g ai/ha) was 20, the “Plant response rating, Corn” value (corn; 31 g ai/ha) was 0 and the “Plant response rating, Corn” value (corn; 62 g ai/ha) was 0. The “Plant response rating, Corn” value (corn; 125 g ai/ha) was 0, the “Plant response rating, Corn” value (corn; 250 g ai/ha) was 0 and the “Plant response rating, Foxtail, Giant” value (giant foxtail; 31 g ai/ha) was 45. For the same compound, the “Plant response rating, Foxtail, Giant” value (giant foxtail; 62 g ai/ha) was 75, the “Plant response rating, Foxtail, Giant” value (giant foxtail; 125 g ai/ha) was 100 and the “Plant response rating, Foxtail, Giant” value (giant foxtail; 250 g ai/ha) was 100. For the same compound, the “Plant response rating, Millet” value (millet; 31 g ai/ha) was 50, the “Plant response rating, Millet” value (millet; 62 g ai/ha) was 50 and the “Plant response rating, Millet” value (millet; 125 g ai/ha) was 100. For the same compound, the “Plant response rating, Millet” value (millet; 250 g ai/ha) was 100, the “Plant response rating, Itchgrass” value (itchgrass; 31 g ai/ha) was 0 and the “Plant response rating, Itchgrass” value (itchgrass; 62 g ai/ha) was 0. The “Plant response rating, Itchgrass” value (itchgrass; 125 g ai/ha) was 0, the “Plant response rating, Itchgrass” value (itchgrass; 250 g ai/ha) was 0 and the “Plant response rating, Foxtail, Green” value (green foxtail; 31 g ai/ha) was 55. For the same compound, the “Plant response rating, Foxtail, Green” value (green foxtail; 62 g ai/ha) was 60, the “Plant response rating, Foxtail, Green” value (green foxtail; 125 g ai/ha) was 65 and the “Plant response rating, Foxtail, Green” value (green foxtail; 250 g ai/ha) was 100. The “Plant response rating, Cotton” value (cotton; 31 g ai/ha) was 0, the “Plant response rating, Cotton” value (cotton; 62 g ai/ha) was 0 and the “Plant response rating, Cotton” value (cotton; 125 g ai/ha) was 0. The “Plant response rating, Cotton” value (cotton; 250 g ai/ha) was 0, the “Plant response rating, Sorghum” value (sorghum; 31 g ai/ha) was 0 and the “Plant response rating, Sorghum” value (sorghum; 62 g ai/ha) was 0. The “Plant response rating, Sorghum” value (sorghum; 125 g ai/ha) was 60, the “Plant response rating, Sorghum” value (sorghum; 250 g ai/ha) was 100 and the “Plant response rating, Oat, Wild” value (wild oat; 31 g ai/ha) was 0. The “Plant response rating, Oat, Wild” value (wild oat; 62 g ai/ha) was 0, the “Plant response rating, Oat, Wild” value (wild oat; 125 g ai/ha) was 0 and the “Plant response rating, Oat, Wild” value (wild oat; 250 g ai/ha) was 0. The “Plant response rating, Canarygrass” value (littleseed canarygrass; 31 g ai/ha) was 0, the “Plant response rating, Canarygrass” value (littleseed canarygrass; 62 g ai/ha) was 0 and the “Plant response rating, Canarygrass” value (littleseed canarygrass; 125 g ai/ha) was 75. For the same compound, the “Plant response rating, Canarygrass” value (littleseed canarygrass; 250 g ai/ha) was 100, the “Plant response rating, Ryegrass, Italian” value (Italian ryegrass; 31 g ai/ha) was 0 and the “Plant response rating, Ryegrass, Italian” value (Italian ryegrass; 62 g ai/ha) was 0. The “Plant response rating, Ryegrass, Italian” value (Italian ryegrass; 125 g ai/ha) was 70 and the “Plant response rating, Ryegrass, Italian” value (Italian ryegrass; 250 g ai/ha) was 100.
